Source: patent US20250163119A1, “COMPOUNDS FOR THE TREATMENT OF DIABETES OR OBESITY” (Eli Lilly and Company, priority 2023, published 2025)
*1 amine or outer side, *2 acyl side, *3 side chain or, on linkers, in order; H or OH if unused. Where a SMILES comes first, the peptide text is derived from it. Bridges are numbered along the chain shown (N, C = ends). Roman numbers before positions name the chains, in order. Side-chain parts run from the residue outwards. [ ]: non-standard residue; d: D form. The star is where a group is joined. C20 diacid = O=C(O)CCCCCCCCCCCCCCCCCCC(=O)*; γGlu = O=C(O)[C@H](CCC(=O)[*:2])N[*:1]; εLys = N[C@@H](CCCCN[*:1])C(=O)[*:2]; αMeL = CC(C)C[C@](C)(N)C(=O)O; AEEA = NCCOCCOCC(=O)O; Aib = CC(C)(N)C(=O)O; Ahx = NCCCCCC(=O)O; βAla = NCCC(=O)O

Key:
human CRHR2 = molecular target: T1, human CRHR2 (Homo sapiens, UniProt Q13324); assay: Human CRHR2 cAMP assay (HTRF) in HEK293 cells stably expressing human CRHR2; assay type: cell-based; conditions: HEK293 cells overexpressing human CRHR2; relative EC50, maximum 10 nM human UCN2; mean ± SE; read-out: hCRHR2 cAMP EC50 (pM, ± SE)
T1 construct: expressed in transfected cells
T1 sequence (Q13324 1-438 isoform Q13324-2): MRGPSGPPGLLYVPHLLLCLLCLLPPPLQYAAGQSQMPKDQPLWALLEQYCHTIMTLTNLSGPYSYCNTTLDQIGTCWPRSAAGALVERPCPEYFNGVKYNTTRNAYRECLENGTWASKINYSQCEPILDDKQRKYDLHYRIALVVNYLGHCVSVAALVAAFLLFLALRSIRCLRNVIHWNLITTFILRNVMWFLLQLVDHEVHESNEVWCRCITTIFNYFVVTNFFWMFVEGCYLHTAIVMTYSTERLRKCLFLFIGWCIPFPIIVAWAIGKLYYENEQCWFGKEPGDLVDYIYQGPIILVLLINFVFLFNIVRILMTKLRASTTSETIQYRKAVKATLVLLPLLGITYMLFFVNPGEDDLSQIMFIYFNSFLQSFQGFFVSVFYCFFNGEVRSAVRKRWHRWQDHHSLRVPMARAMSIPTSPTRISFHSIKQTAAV
Outline: (§1)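 cAMP (pmol/well) derived from HTRF fluorescence via a standard curve run in each experiment. Cells: HEK293 stably expressing human CRHR1 or CRHR2b; peptides in 1:3 series; CRHR1 1 h 37° C, CRHR2 30 min RT.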

human CRHR1 = molecular target: T2, human CRHR1 (Homo sapiens, UniProt P34998); assay: Human CRHR1 cAMP assay (HTRF) in HEK293 cells stably expressing human CRHR1; assay type: cell-based; conditions: HEK293 cells overexpressing human CRHR1; relative EC50, maximum 66 nM human UCN1; mean ± SE; read-out: hCRHR1 cAMP EC50 (pM, ± SE)
T2 construct: expressed in transfected cells
T2 sequence (P34998 24-415): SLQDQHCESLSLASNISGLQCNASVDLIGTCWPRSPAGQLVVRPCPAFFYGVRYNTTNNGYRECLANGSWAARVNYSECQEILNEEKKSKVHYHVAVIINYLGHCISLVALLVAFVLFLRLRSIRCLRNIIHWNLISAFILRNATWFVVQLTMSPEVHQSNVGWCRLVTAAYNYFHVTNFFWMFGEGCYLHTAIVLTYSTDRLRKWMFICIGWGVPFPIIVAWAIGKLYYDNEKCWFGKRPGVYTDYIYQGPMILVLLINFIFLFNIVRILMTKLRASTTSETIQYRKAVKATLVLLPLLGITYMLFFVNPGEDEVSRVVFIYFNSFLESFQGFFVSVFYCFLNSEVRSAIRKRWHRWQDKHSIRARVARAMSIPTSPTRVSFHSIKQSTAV
Outline: as §1

| Compound | EC50 (human CRHR2) | EC50 (human CRHR1) |
| --- | --- | --- |
| CC[C@H](C)[C@H](NC(C)=O)C(=O)N[C@H](C(=O)N[C@H](C(=O)N[C@@H](CO)C(=O)N[C@@](C)(CC(C)C)C(=O)N[C@@H](CC(=O)O)C(=O)N[C@@H](C(=O)N1CCC[C@H]1C(=O)N[C@H](C(=O)NCC(=O)N[C@@](C)(CC(C)C)C(=O)N[C@@H](CC(C)C)C(=O)N[C@@H](CCC(N)=O)C(=O)N[C@H](C(=O)N[C@@H](CCCCN)C(=O)N[C@@H](CC(C)C)C(=O)N[C@@H](CCC(=O)O)C(=O)N[C@@H](CCC(N)=O)C(=O)N[C@@H](CCC(=O)O)C(=O)N[C@@H](CCCNC(=N)N)C(=O)N[C@@H](C)C(=O)N[C@@H](CCC(=O)O)C(=O)N[C@@H](CCCCN)C(=O)N[C@@H](C)C(=O)N[C@@H](CCCNC(=N)N)C(=O)N[C@@H](CCC(N)=O)C(=O)N[C@@H](CCC(N)=O)C(=O)N[C@@H](C)C(=O)N[C@@H](CCCCNC(=O)COCCOCCNC(=O)CC[C@H](NC(=O)[C@@H](N)CCCCNC(=O)CCCCCCCCCCCCCCCCCCC(=O)O)C(=O)O)C(=O)N[C@@H](CCC(=O)O)C(=O)N[C@@H](CC(N)=O)C(=O)N[C@H](C(=O)N[C@@H](CCC(=O)O)C(=O)N[C@H](C(=O)N[C@@H](CC(C)C)C(=O)N[C@@H](C)C(=O)N[C@@H](CCC(N)=O)C(=O)N[C@H](C(N)=O)C(C)C)[C@@H](C)CC)[C@@H](C)O)[C@@H](C)CC)[C@@H](C)O)C(C)C)[C@@H](C)O)C(C)C [SEQ ID NO: 33, Ac-IVTS αMeL D (D-Val) PTG αMeL LQIKLEQERAEKARQQAK((2-[2-(2-Amino-ethoxy)-ethoxy]-acetyl)-γE-ϵK-CO-(CH2)18-CO2H)ENTEILAQV-NH2] (Ac-IVTS[αMeL]D[dV]PTG[αMeL]LQIKLEQERAEKARQQAK([AEEA-γGlu-εLys-C20 diacid])ENTEILAQV-NH2) | 4.6 ± 0.6 pM | 1.1e+06 pM |
| CC[C@H](C)[C@H](NC(C)=O)C(=O)N[C@H](C(=O)N[C@H](C(=O)N[C@@H](CO)C(=O)N[C@@](C)(CC(C)C)C(=O)N[C@@H](CC(=O)O)C(=O)N[C@@H](C(=O)N1CCC[C@H]1C(=O)N[C@H](C(=O)NCC(=O)N[C@@](C)(CC(C)C)C(=O)N[C@@H](CC(C)C)C(=O)N[C@@H](CCC(N)=O)C(=O)N[C@H](C(=O)N[C@@H](CCCCN)C(=O)N[C@@H](CC(C)C)C(=O)N[C@@H](CCC(=O)O)C(=O)N[C@@H](CCC(N)=O)C(=O)N[C@@H](CCC(=O)O)C(=O)N[C@@H](CCCNC(=N)N)C(=O)N[C@@H](C)C(=O)N[C@@H](CCC(=O)O)C(=O)N[C@@H](CCCCN)C(=O)N[C@@H](C)C(=O)N[C@@H](CCCNC(=N)N)C(=O)N[C@@H](CCC(N)=O)C(=O)N[C@@H](CCC(N)=O)C(=O)N[C@@H](C)C(=O)N[C@@H](CCCCNC(=O)CC[C@H](NC(=O)COCCOCCNC(=O)CC[C@H](NC(=O)CCCCCCCCCCCCCCCCCCC(=O)O)C(=O)O)C(=O)O)C(=O)N[C@@H](CCC(=O)O)C(=O)N[C@@H](CC(N)=O)C(=O)N[C@H](C(=O)N[C@@H](CCC(=O)O)C(=O)N[C@H](C(=O)N[C@@H](CC(C)C)C(=O)N[C@@H](C)C(=O)N[C@@H](CCC(N)=O)C(=O)N[C@H](C(N)=O)C(C)C)[C@@H](C)CC)[C@@H](C)O)[C@@H](C)CC)[C@@H](C)O)C(C)C)[C@@H](C)O)C(C)C [SEQ ID NO: 30, Ac-IVTS αMeL D (D-Val) PTG αMeL LQIKLEQERAEKARQQAK(γE-(2-[2-(2-Amino-ethoxy)-ethoxy]-acetyl)-γE-CO-(CH2)18-CO2H)ENTEILAQV-NH2] (Ac-IVTS[αMeL]D[dV]PTG[αMeL]LQIKLEQERAEKARQQAK([γGlu-AEEA-γGlu-C20 diacid])ENTEILAQV-NH2) | 5.7 ± 0.1 pM | > 1e+07 pM |
| Ac-GSPSIVTS[αMeL]DVPT[Aib][αMeL]LQKILEQERAEKARQQAK([Ahx-AEEA-γGlu-C20 diacid])EAAEILAQV-NH2 [SEQ ID NO: 4, Ac-GSPSIVTS αMeL DVPT Aib αMeL LQKILEQERAEKARQQAK(Ahx-(2-[2-(2-Amino-ethoxy)-ethoxy]-acetyl)-γE-CO-(CH2)18-CO2H)EAAEILAQV-NH2] | 20.3 ± 2.9 pM | > 1e+07 pM |
| Ac-GSPSIVTS[αMeL]DVPT[Aib][αMeL]LQKILEQERAEKARQQAK([γGlu-εLys-AEEA-εLys-C20 diacid])EAAEILAQV-NH2 [SEQ ID NO: 19, Ac-GSPSIVTS αMeL DVPT Aib αMeL LQKILEQERAEKARQQAK(γE-EK-(2-[2-(2-Amino-ethoxy)-ethoxy]-acetyl)-ϵK-CO-(CH2)18-CO2H)EAAEILAQV-NH2] | 11.1 ± 0.5 pM | > 1e+07 pM |
| Ac-GSPSIVTS[αMeL]DVPT[Aib][αMeL]LQKILEQERAEKARQQAK([Gly-βAla-βAla-βAla-βAla-γGlu-C20 diacid])EAAEILAQV-NH2 [SEQ ID NO: 8, Ac-GSPSIVTS αMeL DVPT Aib αMeL LQKILEQERAEKARQQAK(G-(βA)4-γE-CO-(CH2)18-CO2H)EAAEILAQV-NH2] | 11 ± 0.9 pM | > 1e+07 pM |
| Ac-GSPSIVTS[αMeL]DVPT[Aib][αMeL]LQKILEQERAEKARQQAK([Gly-βAla-βAla-βAla-γGlu-C20 diacid])EAAEILAQV-NH2 [SEQ ID NO: 7, Ac-GSPSIVTS αMeL DVPT Aib αMeL LQKILEQERAEKARQQAK(G-(βA)3-γE-CO-(CH2)18-CO2H)EAAEILAQV-NH2] | 10.6 ± 1.4 pM | > 1e+07 pM |
| I: Ac-GSPSIVTS[αMeL]DVPT[Aib][αMeL]LQKILEQERAEKARQQAKEAAEILAQV-NH2 / II: {C20 diacid}-PPPPPP[γGlu] (amide I:33-II:C) [SEQ ID NO: 15, Ac-GSPSIVTS αMeL DVPT Aib αMeL LQKILEQERAEKARQQAK(γE-PPPPPP-CO-(CH2)18-CO2H)EAAEILAQV-NH2] | 11.3 ± 0.4 pM | > 1e+07 pM |
| CC[C@H](C)[C@H](NC(C)=O)C(=O)N[C@H](C(=O)N[C@H](C(=O)N[C@@H](CO)C(=O)N[C@@](C)(CC(C)C)C(=O)N[C@@H](CC(=O)O)C(=O)N[C@@H](C(=O)N1CCC[C@H]1C(=O)N[C@H](C(=O)NCC(=O)N[C@@](C)(CC(C)C)C(=O)N[C@@H](CC(C)C)C(=O)N[C@@H](CCC(N)=O)C(=O)N[C@H](C(=O)N[C@@H](CCCCN)C(=O)N[C@@H](CC(C)C)C(=O)N[C@@H](CCC(=O)O)C(=O)N[C@@H](CCC(N)=O)C(=O)N[C@@H](CCC(=O)O)C(=O)N[C@@H](CCCNC(=N)N)C(=O)N[C@@H](C)C(=O)N[C@@H](CCC(=O)O)C(=O)N[C@@H](CCCCN)C(=O)N[C@@H](C)C(=O)N[C@@H](CCCNC(=N)N)C(=O)N[C@@H](CCC(N)=O)C(=O)N[C@@H](CCC(N)=O)C(=O)N[C@@H](C)C(=O)N[C@@H](CCCCNC(=O)[C@@H](N)CCCCNC(=O)COCCOCCNC(=O)CC[C@H](NC(=O)CCCCCCCCCCCCCCCCCCC(=O)O)C(=O)O)C(=O)N[C@@H](CCC(=O)O)C(=O)N[C@@H](CC(N)=O)C(=O)N[C@H](C(=O)N[C@@H](CCC(=O)O)C(=O)N[C@H](C(=O)N[C@@H](CC(C)C)C(=O)N[C@@H](C)C(=O)N[C@@H](CCC(N)=O)C(=O)N[C@H](C(N)=O)C(C)C)[C@@H](C)CC)[C@@H](C)O)[C@@H](C)CC)[C@@H](C)O)C(C)C)[C@@H](C)O)C(C)C [SEQ ID NO: 34, Ac-IVTS αMeL D (D-Val) PTG αMeL LQIKLEQERAEKARQQAK(ϵK-(2-[2-(2-Amino-ethoxy)-ethoxy]-acetyl)-γE-CO-(CH2)18-CO2H)ENTEILAQV-NH2] (Ac-IVTS[αMeL]D[dV]PTG[αMeL]LQIKLEQERAEKARQQAK([εLys-AEEA-γGlu-C20 diacid])ENTEILAQV-NH2) | 4.9 ± 0.7 pM | > 1e+07 pM |
| Ac-GSPSIVTS[αMeL]DVPT[Aib][αMeL]LQKILEQERAEKARQQAK([βAla-Ser-βAla-Ser-γGlu-C20 diacid])EAAEILAQV-NH2 [SEQ ID NO: 10, Ac-GSPSIVTS αMeL DVPT Aib αMeL LQKILEQERAEKARQQAK((βA)-S-(βA)-S-γE-CO-(CH2)18-CO2H)EAAEILAQV-NH2] | 10.1 ± 1.1 pM | > 1e+07 pM |
